Test results published in the supplement of paper PMC6045584.
± gives the standard deviation of the averaged measurements.

Tests used:
[1] = compound: CS(=O)(=O)CCNCc1ccc(-c2ccc3ncnc(Nc4ccc(OCc5cccc(F)c5)c(Cl)c4)c3c2)o1 [LAPATINIB]; test: surviving fraction relative to DMSO-only wells; higher = less growth inhibition; details: exposure time: 5 days
In short: (§1)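 Tumour cell lines were grown to log phase and seeded at 250–500 cells per well in 384-well plates. They were exposed continuously to inhibitors at 0.5, 1, 5, 10, 50, 100, 500 and 1000 nM for five days, beginning 24 hours after seeding. Surviving fraction is CellTiter-Glo luminescence normalised to the median of DMSO-only wells.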

[2] = compound: Oc1ccc(/C=C/c2cc(O)cc(O)c2)cc1 [RESVERATROL]; test: as above; details: exposure time: 5 days
In short: as §1

Test System	surviving fraction ([1]; 0.5 nM)	surviving fraction ([1]; 1 nM)	surviving fraction ([1]; 5 nM)	surviving fraction ([1]; 10 nM)	surviving fraction ([1]; 50 nM)	surviving fraction ([1]; 100 nM)	surviving fraction ([1]; 500 nM)	surviving fraction ([1]; 1000 nM)	surviving fraction ([2]; 0.5 nM)	surviving fraction ([2]; 1 nM)	surviving fraction ([2]; 5 nM)	surviving fraction ([2]; 10 nM)	surviving fraction ([2]; 50 nM)	surviving fraction ([2]; 100 nM)	surviving fraction ([2]; 500 nM)	surviving fraction ([2]; 1000 nM)
CCK81 LARGE INTESTINE	0.728 ± 0.083	0.751 ± 0.054	0.826 ± 0.17	0.751 ± 0.074	0.65 ± 0.16	0.536 ± 0.024	0.082 ± 0.017	0.0653 ± 0.0081	0.73 ± 0.017	0.79 ± 0.13	0.71 ± 0.065	0.724 ± 0.037	0.671 ± 0.058	0.793 ± 0.11	0.844 ± 0.085	0.728 ± 0.039
G292 BONE	0.973 ± 0.011	1.02 ± 0.052	1.03 ± 0.022	1.03 ± 0.026	1.02 ± 0.029	0.999 ± 0.02	0.967 ± 0.077	0.964 ± 0.015	0.995 ± 0.051	0.988 ± 0.011	1.06 ± 0.018	1.07 ± 0.032	1.01 ± 0.027	1.055 ± 0.0077	1.04 ± 0.017	1.03 ± 0.045
HCC38 BREAST	1.03 ± 0.17	0.933 ± 0.042	1 ± 0.35	1.09 ± 0.14	0.873 ± 0.13	0.776 ± 0.097	0.757 ± 0.13	0.794 ± 0.19	1.21 ± 0.057	1.37 ± 0.15	1.48 ± 0.13	1.56 ± 0.2	1.37 ± 0.063	1.2 ± 0.16	1.24 ± 0.14	1.18 ± 0.18
HCC70 BREAST	1.05 ± 0.075	1.1 ± 0.076	1.16 ± 0.069	1.15 ± 0.036	1.05 ± 0.07	1.13 ± 0.044	0.99 ± 0.047	0.941 ± 0.058	1.09 ± 0.07	1.11 ± 0.11	1.14 ± 0.13	1.04 ± 0.049	1.13 ± 0.066	1.06 ± 0.054	1.11 ± 0.075	0.999 ± 0.022
HMLE3 BREAST	1.04 ± 0.1	1.09 ± 0.074	1.05 ± 0.065	1.07 ± 0.098	1.04 ± 0.041	1.14 ± 0.13	0.992 ± 0.084	0.966 ± 0.046	1.01 ± 0.067	1.03 ± 0.089	1.02 ± 0.051	1.03 ± 0.061	1.04 ± 0.096	1.03 ± 0.13	1.06 ± 0.055	1.12 ± 0.12
HMT3552 BREAST	1.03 ± 0.033	1.02 ± 0.073	1.06 ± 0.026	1.04 ± 0.075	1.02 ± 0.014	1.05 ± 0.083	0.861 ± 0.12	0.944 ± 0.074	1.06 ± 0.038	1.12 ± 0.047	1.09 ± 0.027	1.03 ± 0.067	1.07 ± 0.039	1.17 ± 0.056	1.12 ± 0.044	1.17 ± 0.055
HS578T BREAST	1.19 ± 0.11	1.03 ± 0.045	1.11 ± 0.15	0.871 ± 0.14	1.04 ± 0.048	1.08 ± 0.013	0.941 ± 0.052	1.05 ± 0.15	1.15 ± 0.15	1.15 ± 0.036	1.24 ± 0.14	1.14 ± 0.049	1.03 ± 0.074	1.27 ± 0.11	1.17 ± 0.22	1.12 ± 0.19
